What was measured:
[1] = tested on: K. pneumoniae ATCC BAA-2524; assay: MIC by broth microdilution, β-lactam-resistant strain producing OXA-48; format: cell-based, Klebsiella pneumoniae; details: Klebsiella pneumoniae, ATCCBAA2524, no β-lactam, BLI tested at 32 µg/mL, read-out: MIC, BLI alone
From the text: (§1) To evaluate the capability of restoring β-lactam susceptibility, the two most promising representatives of SC_2 (ID3) and SC_7 (ID2) were screened alone and in combination with ampicillin (AMP) and IMP against sensitive and resistant Gram-negative bacteria. Avibactam and tazobactam were also included in the MIC characterization as BLI reference compounds. Specifically, we used E. coli ATCC25922 as antibiotic-sensitive strain, while E. coli ATCC BAA-2523 and K. pneumoniae ATCC BAA-2524 as β-lactam-resistant bacteria, producing OXA-48 carbapenemase.
(§2) Test compounds and tazobactam were tested at 32 µg/mL, while avibactam was applied at 4 µg/mL. […] Both antibiotics were selected for the combination study as they can be hydrolyzed by the target OXA-48 enzyme.
(§3) MIC values were determined by the broth dilution method and interpreted using published guidelines described by Clinical and Laboratory Standards Institute (CLSI).
(§4) All BLIs were dissolved in 100% DMSO and they were tested at a fixed concentration of 32 µg/mL and 1% of DMSO final concentration. Avibactam was used as reference β-lactamase inhibitor. All antimicrobials were prepared in line with CLSI susceptibility testing standards. AMP (USP # 1033000; batch no. K1M493) was dissolved at 5.12 mg/mL, IMP (USP # 1337809; batch no. R038R0) and avibactam (Biochem # NXL 104; batch no. 20180726) were dissolved at 1.28 mg/mL in the respective solvents recommended by CLSI (2). Solutions at 4X the final concentrations of the test range were made in Cation adjusted Mueller-Hinton broth (CA-MHB, BD # 212322; batch no. 6117994; Expiry date: 29.02.2020) by serial dilutions, and then diluted 2-fold with CA-MHB (for antimicrobials alone), or with the BLIs/avibactam (for combinations of new/reference inhibitors and antimicrobials). Moreover, all BLIs were tested alone at a fixed concentration of 32 μg/mL. The final concentration of DMSO in the test tubes was 1% for each different combination.
(§5) 50 μL of each well were then transferred from the masterblock into 96-well plates to whom were then added 50 μL of the final inoculum. MIC tests were performed by broth microdilution in line with CLSI susceptibility testing standards. Bacterial inocula were prepared at ca. 1 × 10^6 CFU/mL by diluting 100-fold a 0.5 McFarland suspension in CA-MHB with TES (TREK Diagnostic Systems, Product code: T3462; Batch: 356347; Expiry date: 12-Jun-2019). 50 μL of antibacterial solutions at 2 × the final concentrations were diluted 2-fold with 50 μL of inoculum to give a final inoculum of ca. 5 × 10^5 CFU/mL and desired test concentrations of antibacterial agents. Test plates were incubated according to CLSI guidelines and read visually. MIC values corresponded to the first well with no visible growth.

E. coli ATCC BAA-2523 = assay: as above; format: cell-based, Escherichia coli; details: Escherichia coli, ATCCBAA2523, no β-lactam, BLI tested at 32 µg/mL, read-out: MIC, BLI alone
From the text: as §1, §2, §3, §4, §5

OXA-48 [2] = target: T1, OXA-48 (Klebsiella pneumoniae, UniProt Q6XEC0); assay: Time-dependent inhibition of OXA-48; format: biochemical; details: for dependence of AC50 on preincubation time with OXA-48: preincubation 0, 15, 30, 60, 90, 120, 180, 240 min
T1 construct: made in house; host or cells: E. coli BL21(DE3), T7 expression system
Experimental: On this basis, compounds ID1 and ID2 as well as the irreversible reference inhibitor tazobactam were tested in dose–response against OXA-48 lactamase, by pre-incubating the compounds with the enzyme at different time points (0, 15, 30, 60, 90, 120, 180, 240 min) before starting the reaction upon addition of the nitrocefin substrate.
Experimental conditions were identical to the ones applied for the primary assay for HTS: 20 μL of 2X compounds with 1% DMSO; 10 μL 4X enzyme (0.0014 ng/µL OXA-48 final concentration) were dispensed into preincubation plate. The reaction buffer was: 20 mM Hepes pH 8.0, 12.5 mM NaCl, 0.005% BSA-pf, 0.0005% Brij-35.
Preincubation time was for a period spanning from 0 up to 240′ at rt between enzyme and compounds and for 15′ at rt between enzyme and control wells. The reactions were started by transferring of 15 μL of enzyme-compounds or enzyme-control from preincubation plate into assay plate adding 5 μL 4X nitrocefin substrate (25 µM final concentration) at different time points, at 0 (i.e., no preincubation)–15–30–60–90–120–180–240 min of preincubation between OXA-48 and compounds. Reading was at PHERAstar (BMG Labtechnologies), in kinetic for up to 60′ (λex: 485 nm; λem: 520 nm). Data were analyzed to determine the respective AC50 values obtained at all the tested preincubation time points.
b. If the AC50 value was inversely proportional to the preincubation time with OXA-48, the compound was assigned as non-reversible inhibitor.

E. coli ATCC25922 = assay: MIC by broth microdilution, antibiotic-sensitive strain; format: cell-based; details: Escherichia coli, no β-lactam, BLI tested at 32 µg/mL, read-out: MIC, BLI alone
From the text: as §1, §2, §3, §4, §5

OXA-48 [3] = target: T1, OXA-48; assay: Apparent Km and Vmax of nitrocefin with inhibitor; Ki and α determination; format: biochemical; details: for type of reversible inhibition: Lineweaver–Burk plots, with respect to nitrocefin; for α value: mixed model inhibition fit
Experimental: To further elucidate the type of reversible inhibition of compounds ID1 and ID2, double substrate (nitrocefin) and inhibitor titrations were run.
In this study, the characterization of the type of reversible inhibition was performed by the determination of the apparent Km and Vmax of nitrocefin in the presence of three concentrations of the selected inhibitors.
Stock AC30, AC50, and AC70 solutions for selected compounds were prepared at 200X in 100% DMSO. 2X compounds were prepared by diluting stock AC30, AC50 and AC70 solutions 1:100 in 1X reaction buffer.
20 μL of 2X compounds with 1% DMSO; 10 μL 4X enzyme (0.0014 ng/µL OXA-48 final concentration) were dispensed into preincubation plate and kept for 15′ at rt. […] Each compound ACn was tested in duplicate against each dose of nitrocefin. Compound activity was quantified on the fluorescence signal measured at 520 nm (kinetic measurement for 60 min of reaction). The initial velocity (V0) of the reaction was computed in the first 300′’ of measurements as robust slope. The slopes computed by Genedata Screener 13.0.5. were copied in GraphPad Prism (version 7.00, GraphPad Software Inc.) for the Michaelis-Menten analysis and the Lineweaver-Burk analysis. The average of slope replicates (n = 2) was transformed into double-reciprocal and linear regression analysis was applied.
a. When the Vmax value was independent from inhibitor concentration and the Km value of the substrate was directly proportional to the inhibitor concentration, the corresponding compound was assigned as competitive inhibitor.
V0 data obtained for the determination of apparent Km and Vmax of nitrocefin in the presence of three concentrations of the selected inhibitors, were used for the computation of Ki and a values using in GraphPad Prism (version 8.00, GraphPad Software Inc.) the mixed model inhibition/nonlinear regression curve fit method.

T1 sequence (Q6XEC0 23-265, looked up): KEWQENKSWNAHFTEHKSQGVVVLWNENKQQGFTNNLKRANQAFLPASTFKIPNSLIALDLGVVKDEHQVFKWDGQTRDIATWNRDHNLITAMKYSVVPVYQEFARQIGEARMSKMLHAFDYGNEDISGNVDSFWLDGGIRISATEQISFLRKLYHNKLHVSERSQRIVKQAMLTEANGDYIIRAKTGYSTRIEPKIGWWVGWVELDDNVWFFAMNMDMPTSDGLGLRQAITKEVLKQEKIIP

C[C@]1(Cn2ccnn2)[C@H](C(=O)O)N2C(=O)C[C@H]2S1(=O)=O [tazobactam, reference compound]
MIC [1]: > 32 µg/mL
MIC (E. coli ATCC BAA-2523): > 32 µg/mL
AC50 after preincubation relative to AC50 without preincubation (OXA-48 [2]; plateau after 90 min of preincubation): almost six-fold lower
dependence of AC50 on preincubation time with OXA-48 (OXA-48 [2]): inversely proportional time-dependent inhibition

CCc1ccc(-c2n[nH]c3nc(-c4ccc(C(=O)O)cc4)cc(C(=O)O)c23)cc1 [ID2]
MIC [1]: > 32 µg/mL
MIC (E. coli ATCC BAA-2523): > 32 µg/mL
MIC (E. coli ATCC25922): > 32 µg/mL
dependence of AC50 on preincubation time with OXA-48 (OXA-48 [2]): independent on the preincubation time
type of reversible inhibition (OXA-48 [3]): competitive
α value (OXA-48 [3]): 5.44

O=C(O)c1ccc(C=Nn2c(S)nnc2-c2ccccc2)cc1 [ID1]
dependence of AC50 on preincubation time with OXA-48 (OXA-48 [2]): independent on the preincubation time
type of reversible inhibition (OXA-48 [3]): competitive
α value (OXA-48 [3]): 5.50

— paper PMC8308845, “Discovery of Novel Chemical Series of OXA-48 β-Lactamase Inhibitors by High-Throughput Screening” (Pharmaceuticals, 2021)
